# From patent US20090018136A1, “METHODS AND COMPOSITIONS FOR THE TREATMENT OF VASCULAR DISEASE” (priority 2005, published 2009)
# Key:
# hypertensive patients [1] = test: Adverse events in Study 1 and Study 2 of oral BH4; assay type: in vivo, human; conditions: either study
# From the text: Subjects between the ages of 18 and 75 years were recruited if they had uncontrolled hypertension on traditional stable anti-hypertensive therapy (BP≧135/85), or newly diagnosed hypertension (BP≧140/90). Patients were continued on their current anti-hypertensive therapy which remained unchanged. The criteria for exclusion were: female subjects with childbearing potential, history of recently symptomatic coronary or peripheral vascular disease, known secondary causes for hypertension, severe uncontrolled hypertension (BP>180 mmHg systolic and/or 110 mmHg diastolic), severe co-morbid conditions which would limit life expectancy to less than 6 months, renal or hepatic dysfunction, alteration of any concomitant anti-hypertensive therapy within the last 6 weeks, and any bleeding disorders. BH4 powder was obtained from Schircks Laboratories (Jona, Switzerland). BH4 when administered with vitamin C was compounded with vitamin C at a ratio of 1 mg of vitamin C/1 mg BH4 into appropriate sized capsules. Subjects were advised to keep the pills in a freezer or refrigerator.
# Of the 20 subjects who qualified for participation, 4 were excluded during the run-in phase because of inability to return for follow-up appointments. There were 6 male subjects, mean age 59.5±8.3 years. […] Mean blood pressure was calculated as: (SBP+2×DBP)/3. […]
# [2] = patients with Type II diabetes and coronary heart disease compared to control subjects; cited from earlier work
# hypertensive patients [3] = test: Study 1: blood pressure and heart rate during 8 weeks of oral BH4; assay type: in vivo, human
# Experimental: Prior studies have used parenteral infusion of BH4 or a single oral dose; thus it was not known whether long-term oral BH4 over a period of days to weeks would result in a sustained improvement in endothelial dysfunction. […] Two studies were conducted to investigate the duration of action of oral BH4 and the response of hypertensive subjects to different doses of BH4. […] Patients were continued on their current anti-hypertensive therapy which remained unchanged. […] BH4 powder was obtained from Schircks Laboratories (Jona, Switzerland). BH4 when administered with vitamin C was compounded with vitamin C at a ratio of 1 mg of vitamin C/1 mg BH4 into appropriate sized capsules. Subjects were advised to keep the pills in a freezer or refrigerator. Eight subjects were recruited, 3 male, mean age 60.5±10.9 years. Subjects were assigned to one of two groups. One group received BH4 10 mg/kg/day (n=4) and the other group received 5 mg/kg/day (n=4) given in two divided doses orally for 8 weeks. These dosages were based on dosing of BH4 used in phenylketonuria. Weekly BP measurements were made throughout the treatment period, and at one week and 6 weeks after discontinuation. Mean blood pressure was calculated as: (SBP+2×DBP)/3. For both study 1 and study 2, the primary end point after statistical analysis was a reduction of systolic, mean and diastolic BP during BH4 therapy. Secondary end points included improvement of endothelial function as FMD. Linear mixed effects models for repeated measures data were used to analyze change in BP from baseline to end of treatment period and differences in change between 100 mg and 200 mg dose groups. A quadratic term for week was included in the model to account for non-linear trends over the treatment period. Dose, week and week squared were the main effect terms in the model; dose by week and dose by week squared were the interaction terms in the model. Significant interaction terms indicate a difference in the pattern of change between the two dose groups. FMD data was analyzed using the two-tailed student t-test.
# forearm blood flow = conditions: patients with diabetes or hypercholesterolemia but not normal subjects; cited from earlier work
# cardiac allograft = conditions: cited from earlier work
# [4] = test system: patients with poorly controlled hypertension; conditions: cited from earlier work
# [5] = test system: coronary blood flow velocity; conditions: BH4 infused during angiography, patients with endothelial dysfunction; cited from earlier work
# brachial artery = test: Study 1: brachial artery flow-mediated and nitroglycerin-mediated vasodilation by ultrasound; assay type: in vivo, human
# Experimental: The technique was carried out as described in Prasad et al., Circulation, 2000. 101(20): p. 2349-54. Briefly, using an 11 MHz high resolution ultrasound transducer (Acuson Inc) in a temperature-controlled room, brachial diameter was measured above the antecubital fossa in the non-dominant arm. Flow-mediated vasodilation (FMD) was measured by inflating a BP cuff on the forearm to >200 mm Hg for 5 minutes, deflating rapidly, and measuring brachial diameter at 1 minute after onset of hyperemia. For all measurements three diameters were measured on three separate end-diastolic frames and averaged. To obtain the maximal brachial artery dilation that represents FMD the following equation was used: (average diameter with hyperemia−average baseline diameter)÷average baseline diameter X 100. To measure the endothelium-independent vasodilator response, subjects were given sublingual nitroglycerin 0.4 mg and the brachial diameter was measured as above after 5 minutes. To obtain endothelium-independent vasodilation the following equation was used: (average diameter post nitroglycerin-average baseline diameter)÷average baseline diameter X 100. For both study 1 and study 2, the primary end point after statistical analysis was a reduction of systolic, mean and diastolic BP during BH4 therapy. Secondary end points included improvement of endothelial function as FMD. Linear mixed effects models for repeated measures data were used to analyze change in BP from baseline to end of treatment period and differences in change between 100 mg and 200 mg dose groups. A quadratic term for week was included in the model to account for non-linear trends over the treatment period. Dose, week and week squared were the main effect terms in the model; dose by week and dose by week squared were the interaction terms in the model. Significant interaction terms indicate a difference in the pattern of change between the two dose groups. FMD data was analyzed using the two-tailed student t-test.
structure (smiles),measurement,setting,value
"C[C@H](O)[C@H](O)[C@H]1CNc2nc(N)[nH]c(=O)c2N1 [BH4, tetrahydrobiopterin]",adverse events,hypertensive patients [1],no significant adverse events
same,insulin sensitivity,[2],increases
same,change in diastolic BP,hypertensive patients [3]; Study 1,did not reach statistical significance
same,change in heart rate with BH4,hypertensive patients [3]; Study 1,no significant change
same,differences between the 5 mg/kg and 10 mg/kg doses of BH4,hypertensive patients [3]; Study 1,no statistically significant differences
same,BP after discontinuation of therapy,"hypertensive patients [3]; Study 1, 6 weeks after discontinuation, p=ns compared to baseline",returned toward pre-treatment levels
same,systolic BP lower by a mean of,"hypertensive patients [3]; Study 1, after 3 weeks, p=0.004",13±9 mmHg
same,systolic BP lower by a mean of,"hypertensive patients [3]; Study 1, after 5 weeks, p=0.04, persisted for the 8 weeks of treatment",15±15 mmHg
same,reduction in systolic BP with BH4,"hypertensive patients [3]; Study 1, combined group (5 and 10 mg/kg/day oral, two divided doses, 8 weeks), p=0.005 quadratic trend",significant reduction
same,reduction in mean arterial BP with BH4,"hypertensive patients [3]; Study 1, combined group, 8 weeks, p=0.01",significant reduction
same,duration for which BP reduction was sustained,"hypertensive patients [3]; continuous therapy, without tachyphylaxis",up to 8 weeks
same,NO-mediated effects on forearm blood flow,forearm blood flow,augment
same,mean graft survival time,"cardiac allograft; BH4 50 mg/kg every 8 hours intramuscularly for 7 days, untreated allografts 7.1±0.7 days, p<0.05",12.3 ± 4.9 days
same,allograft survival,cardiac allograft; allogeneic mouse heart transplantation,significantly prolonged
same,Nitrate and nitrite concentrations in plasma,"cardiac allograft; day 6, also elevated in untreated animals",elevated
same,blood pressure after cessation of therapy,[4]; 6 weeks after cessation,returned to baseline values
same,FMD following withdrawal,[4]; after 1 week following withdrawal,returned to baseline
same,FMD,"[4]; after 8 weeks of oral BH4 (5 mg/kg/d, 10 mg/kg/d), eight patients",increased significantly
same,treatment time after which blood pressure reduction was significant,"[4]; human, in vivo",3 weeks
same,systolic and diastolic pressures,[4]; oral BH4 5 or 10 mg/kg/d over 8 weeks,significantly reduced
same,abnormal vasoconstriction to acetylcholine,[5],prevented
same,Flow-mediated vasodilation of the brachial artery,"brachial artery; Study 1, 6 weeks after termination of therapy, p=ns compared to baseline",3.7±1.3%
same,Flow-mediated vasodilation of the brachial artery,"brachial artery; Study 1, after 8 weeks of BH4, baseline mean 3.4±1%, p=0.05, n=6",8.2±3.4%
same,Nitroglycerin-mediated vasodilation,"brachial artery; Study 1, after BH4, 11.9±3% before, p=0.1, remained unchanged",16.1±5%
